For 2 compounds, EC50 and IC50 results are on record in article PMC6130310 (Frontiers in Molecular Neuroscience, 2018).

Experiment in all cases: two-electrode voltage clamp, Xenopus oocytes
The target of one assay is T1, zGlyRα2/ßb (Danio rerio, UniProt F1R8P4+Q6DC22).
T1 construct: gene glra2; full-length cDNAs in pCS2+, cRNAs co-injected 1:1 in Xenopus laevis oocytes; heteropentamer
T1 sequence (F1R8P4 28-449): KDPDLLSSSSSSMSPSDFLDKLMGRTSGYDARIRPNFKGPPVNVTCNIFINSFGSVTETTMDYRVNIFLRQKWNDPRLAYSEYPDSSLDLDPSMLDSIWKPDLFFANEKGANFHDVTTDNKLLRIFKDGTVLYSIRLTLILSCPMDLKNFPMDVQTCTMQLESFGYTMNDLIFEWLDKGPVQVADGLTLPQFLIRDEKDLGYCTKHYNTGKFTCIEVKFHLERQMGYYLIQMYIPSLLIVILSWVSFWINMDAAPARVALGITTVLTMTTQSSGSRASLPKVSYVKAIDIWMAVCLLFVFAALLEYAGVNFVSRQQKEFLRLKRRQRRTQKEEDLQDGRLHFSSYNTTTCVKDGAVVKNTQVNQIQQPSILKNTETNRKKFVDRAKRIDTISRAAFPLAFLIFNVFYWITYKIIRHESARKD
T1 sequence (Q6DC22 23-494): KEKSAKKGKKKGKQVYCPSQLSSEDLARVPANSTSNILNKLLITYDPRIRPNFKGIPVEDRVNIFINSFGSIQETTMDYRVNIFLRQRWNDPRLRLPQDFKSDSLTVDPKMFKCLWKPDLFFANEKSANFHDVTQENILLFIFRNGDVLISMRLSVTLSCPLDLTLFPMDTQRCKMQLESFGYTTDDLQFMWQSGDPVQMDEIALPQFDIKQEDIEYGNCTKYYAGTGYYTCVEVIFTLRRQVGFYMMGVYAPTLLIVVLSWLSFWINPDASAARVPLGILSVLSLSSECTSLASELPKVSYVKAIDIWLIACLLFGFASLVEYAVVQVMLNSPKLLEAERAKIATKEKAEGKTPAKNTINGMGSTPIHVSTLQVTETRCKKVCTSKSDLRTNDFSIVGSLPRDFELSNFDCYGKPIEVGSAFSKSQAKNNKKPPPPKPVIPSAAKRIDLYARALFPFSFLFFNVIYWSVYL
The assay is classed as cell-based. The text has this: two-electrode voltage clamp, Xenopus oocytes on zGlyRα2/ßb

Another assay deals with T2, zGlyRα1 homomer (Danio rerio, UniProt O93430).
T2 construct: gene glra1; full-length cDNA in pCS2+, Kozak added; cRNA in Xenopus laevis oocytes; homopentamer
T2 sequence (O93430 25-444): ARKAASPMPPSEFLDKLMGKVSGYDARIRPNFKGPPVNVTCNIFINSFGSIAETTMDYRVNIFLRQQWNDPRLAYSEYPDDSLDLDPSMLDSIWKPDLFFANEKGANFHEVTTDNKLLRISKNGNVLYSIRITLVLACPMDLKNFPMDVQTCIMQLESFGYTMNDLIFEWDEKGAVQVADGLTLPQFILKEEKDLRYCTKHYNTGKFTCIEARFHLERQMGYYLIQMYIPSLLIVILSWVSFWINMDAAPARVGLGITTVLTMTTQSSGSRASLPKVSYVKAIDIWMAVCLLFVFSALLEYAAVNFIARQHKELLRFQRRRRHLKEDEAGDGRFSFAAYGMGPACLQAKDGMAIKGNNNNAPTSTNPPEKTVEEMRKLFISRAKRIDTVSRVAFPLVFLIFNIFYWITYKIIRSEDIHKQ
The class given is cell-based. An excerpt: two-electrode voltage clamp, Xenopus oocytes on zGlyRα1 homomer

A further assay has as its target T3, zGlyRα4b homomer (Danio rerio, UniProt A0A8M1P2L1).
T3 construct: gene glra4b; full-length cDNA in pCS2+, Kozak added; cRNA in Xenopus laevis oocytes; homopentamer
T3 sequence (A0A8M1P2L1 25-492): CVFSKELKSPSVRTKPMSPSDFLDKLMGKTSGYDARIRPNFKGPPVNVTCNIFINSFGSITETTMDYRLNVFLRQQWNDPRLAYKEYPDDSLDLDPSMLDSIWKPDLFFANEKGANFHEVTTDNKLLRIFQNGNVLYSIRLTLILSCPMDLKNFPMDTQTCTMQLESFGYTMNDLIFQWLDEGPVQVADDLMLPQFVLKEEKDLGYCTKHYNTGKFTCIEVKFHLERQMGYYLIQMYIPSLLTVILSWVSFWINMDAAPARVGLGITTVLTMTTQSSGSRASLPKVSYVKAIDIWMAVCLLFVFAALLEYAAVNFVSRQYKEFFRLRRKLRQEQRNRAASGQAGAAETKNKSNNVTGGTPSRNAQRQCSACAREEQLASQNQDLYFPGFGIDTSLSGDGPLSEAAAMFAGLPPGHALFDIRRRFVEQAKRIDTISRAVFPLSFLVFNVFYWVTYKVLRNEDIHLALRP
The class given is cell-based. An excerpt:
two-electrode voltage clamp, Xenopus oocytes on zGlyRα4b homomer

In the next assay the test system is T4, zGlyRα1/ßa.
T4 construct: gene glra1; full-length cDNAs in pCS2+, cRNAs co-injected 1:1 in Xenopus laevis oocytes; heteropentamer
The class given is cell-based, Danio rerio. The settings on record: -50 mV, pH 7.5, heteromers alpha:beta cRNA 1:1. An excerpt:
two-electrode voltage clamp, Xenopus oocytes on zGlyRα1/ßa

In the next assay the target is T5, zGlyRα4b/ßb (Danio rerio, UniProt A0A8M1P2L1+Q6DC22).
T5 construct: gene glra4b; full-length cDNAs in pCS2+, cRNAs co-injected 1:1 in Xenopus laevis oocytes; heteropentamer
T5 sequence (A0A8M1P2L1 25-492): T3 sequence (A0A8M1P2L1 25-492)
T5 sequence (Q6DC22 23-494): T1 sequence (Q6DC22 23-494)
The assay is classed as cell-based. An excerpt:
two-electrode voltage clamp, Xenopus oocytes on zGlyRα4b/ßb

A further assay concerns the target T6, zGlyRα3 homomer (Danio rerio, UniProt A0A8M1PA31).
T6 construct: gene glra3; full-length cDNA in pCS2+, Kozak added; cRNA in Xenopus laevis oocytes; homopentamer
T6 sequence (A0A8M1PA31 28-450): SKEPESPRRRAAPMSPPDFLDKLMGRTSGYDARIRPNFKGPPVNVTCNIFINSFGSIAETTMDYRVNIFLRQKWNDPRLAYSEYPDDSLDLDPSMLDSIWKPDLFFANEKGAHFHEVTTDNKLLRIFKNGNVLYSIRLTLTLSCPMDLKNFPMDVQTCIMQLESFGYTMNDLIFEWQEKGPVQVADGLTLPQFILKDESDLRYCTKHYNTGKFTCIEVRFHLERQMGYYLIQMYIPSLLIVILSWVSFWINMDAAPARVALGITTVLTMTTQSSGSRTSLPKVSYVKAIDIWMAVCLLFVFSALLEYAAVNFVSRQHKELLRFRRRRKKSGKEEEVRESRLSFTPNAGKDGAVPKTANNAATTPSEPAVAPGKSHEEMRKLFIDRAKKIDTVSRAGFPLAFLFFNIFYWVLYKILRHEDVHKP
The assay is classed as cell-based. An excerpt:
two-electrode voltage clamp, Xenopus oocytes on zGlyRα3 homomer

The test system of the next assay is T7, zGlyRα1/ßb.
T7 construct: gene glra1; full-length cDNAs in pCS2+, cRNAs co-injected 1:1 in Xenopus laevis oocytes; heteropentamer
The class given is cell-based, Danio rerio. The note with it: -50 mV, pH 7.5, heteromers alpha:beta cRNA 1:1. An excerpt: two-electrode voltage clamp, Xenopus oocytes on zGlyRα1/ßb

Another assay concerns the target T8, zGlyRα4a homomer (Danio rerio, UniProt F1RDZ6).
T8 construct: gene glra4a; full-length cDNA in pCS2+, Kozak added; cRNA in Xenopus laevis oocytes; homopentamer
T8 sequence (F1RDZ6 28-457): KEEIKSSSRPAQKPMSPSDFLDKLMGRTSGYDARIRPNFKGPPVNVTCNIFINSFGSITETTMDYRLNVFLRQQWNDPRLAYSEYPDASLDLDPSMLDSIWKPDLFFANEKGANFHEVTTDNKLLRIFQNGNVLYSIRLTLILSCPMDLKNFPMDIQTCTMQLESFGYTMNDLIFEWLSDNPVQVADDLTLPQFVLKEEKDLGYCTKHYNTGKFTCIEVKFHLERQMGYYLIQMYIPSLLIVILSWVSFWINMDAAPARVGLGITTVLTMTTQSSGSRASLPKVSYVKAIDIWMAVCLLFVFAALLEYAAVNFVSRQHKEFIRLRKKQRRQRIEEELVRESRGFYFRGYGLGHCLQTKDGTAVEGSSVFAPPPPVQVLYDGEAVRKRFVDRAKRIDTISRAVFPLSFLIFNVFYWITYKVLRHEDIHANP
The assay is classed as cell-based. The text has this: two-electrode voltage clamp, Xenopus oocytes on zGlyRα4a homomer

The next assay deals with T9, zGlyRα2 homomer (Danio rerio, UniProt F1R8P4).
T9 construct: gene glra2; full-length cDNA in pCS2+, Kozak added; cRNA in Xenopus laevis oocytes; homopentamer; not the earlier 'zGlyRα2' (now α4a)
T9 sequence (F1R8P4 28-449): T1 sequence (F1R8P4 28-449)
The class given is cell-based. The text has this: two-electrode voltage clamp, Xenopus oocytes on zGlyRα2 homomer

The next assay deals with T10, zGlyRα3/ßa (Danio rerio, UniProt A0A8M1PA31+A0ACM8PZL4).
T10 construct: gene glra3; full-length cDNAs in pCS2+, cRNAs co-injected 1:1 in Xenopus laevis oocytes; heteropentamer
T10 sequence (A0ACM8PZL4 23-498, one chain of several): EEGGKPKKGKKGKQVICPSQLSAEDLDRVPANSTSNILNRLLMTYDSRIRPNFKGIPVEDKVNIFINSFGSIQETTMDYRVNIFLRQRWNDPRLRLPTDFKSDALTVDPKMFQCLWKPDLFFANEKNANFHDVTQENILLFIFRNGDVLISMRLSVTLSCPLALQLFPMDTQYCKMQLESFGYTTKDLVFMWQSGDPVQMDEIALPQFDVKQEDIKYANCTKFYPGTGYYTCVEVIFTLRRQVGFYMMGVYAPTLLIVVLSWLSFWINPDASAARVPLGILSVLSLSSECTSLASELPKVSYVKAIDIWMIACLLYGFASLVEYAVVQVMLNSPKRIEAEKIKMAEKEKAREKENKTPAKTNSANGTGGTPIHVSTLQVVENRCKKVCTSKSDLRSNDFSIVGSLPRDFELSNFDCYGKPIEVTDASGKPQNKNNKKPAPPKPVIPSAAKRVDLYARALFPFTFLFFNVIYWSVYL
The assay is classed as cell-based. The text has this:
two-electrode voltage clamp, Xenopus oocytes on zGlyRα3/ßa

For the next assay, the target named is T11, zGlyRα2/ßa (Danio rerio, UniProt A0ACM8PZL4+F1R8P4).
T11 construct: gene glra2; full-length cDNAs in pCS2+, cRNAs co-injected 1:1 in Xenopus laevis oocytes; heteropentamer
T11 sequence (A0ACM8PZL4 23-498, one chain of several): as above
The class given is cell-based. The text has this:
two-electrode voltage clamp, Xenopus oocytes on zGlyRα2/ßa

The next assay concerns the target T12, zGlyRα4b/ßa (Danio rerio, UniProt A0A8M1P2L1+A0ACM8PZL4).
T12 construct: gene glra4b; full-length cDNAs in pCS2+, cRNAs co-injected 1:1 in Xenopus laevis oocytes; heteropentamer
The assay is classed as cell-based. An excerpt: two-electrode voltage clamp, Xenopus oocytes on zGlyRα4b/ßa

The next assay addresses T13, zGlyRα4a/ßb (Danio rerio, UniProt F1RDZ6+Q6DC22).
T13 construct: gene glra4a; full-length cDNAs in pCS2+, cRNAs co-injected 1:1 in Xenopus laevis oocytes; heteropentamer
T13 sequence (F1RDZ6 28-457): T8 sequence (F1RDZ6 28-457)
T13 sequence (Q6DC22 23-494): T1 sequence (Q6DC22 23-494)
The assay is classed as cell-based. An excerpt: two-electrode voltage clamp, Xenopus oocytes on zGlyRα4a/ßb

A further assay has as its target T14, zGlyRα3/ßb (Danio rerio, UniProt A0A8M1PA31+Q6DC22).
T14 construct: gene glra3; full-length cDNAs in pCS2+, cRNAs co-injected 1:1 in Xenopus laevis oocytes; heteropentamer
T14 sequence (A0A8M1PA31 28-450): T6 sequence (A0A8M1PA31 28-450)
T14 sequence (Q6DC22 23-494): T1 sequence (Q6DC22 23-494)
The assay is classed as cell-based. An excerpt: two-electrode voltage clamp, Xenopus oocytes on zGlyRα3/ßb

For the next assay, the target named is T15, zGlyRα4a/ßa (Danio rerio, UniProt A0ACM8PZL4+F1RDZ6).
T15 construct: gene glra4a; full-length cDNAs in pCS2+, cRNAs co-injected 1:1 in Xenopus laevis oocytes; heteropentamer
T15 sequence (A0ACM8PZL4 23-498, one chain of several): as above
The assay is classed as cell-based. The text has this: two-electrode voltage clamp, Xenopus oocytes on zGlyRα4a/ßa

[1] abbreviates: read-out: Glycine / EC50, agonist.
The mark [2] stands for this setting: read-out: Strychnine / IC50, competitive antagonist, block of current evoked by 200 μM glycine.

T12 sequence (A0ACM8PZL4 23-498, one chain of several): as above

On to `NCC(=O)O` [glycine], for which the EC50 on zGlyRα2/ßb amounted to 343 ± 64 µM; at zGlyRα1 homomer it was 102 ± 5.8 µM; at zGlyRα4b homomer, 134 ± 15 µM; in the assay with zGlyRα1/ßa (setting [1]) it was 186 ± 10 µM; on zGlyRα4b/ßb it was 221 ± 15 µM; at zGlyRα3 homomer, 125 ± 7.9 µM. Further, the EC50 with zGlyRα1/ßb (setting [1]) was 194 ± 18 µM; at zGlyRα4a homomer, 200 ± 16 µM; at zGlyRα2 homomer it was 138 ± 10 µM; on zGlyRα3/ßa, 521 ± 52 µM; at zGlyRα2/ßa, 307 ± 30 µM; on zGlyRα4b/ßa, 236 ± 17 µM. In addition, the figures for the EC50 on zGlyRα4a/ßb, on zGlyRα3/ßb and at zGlyRα4a/ßa were 404 ± 24 µM, 260 ± 20 µM and 458 ± 82 µM, respectively.

For the compound `O=C1C[C@@H]2OCC=C3CN4CC[C@]56c7ccccc7N1[C@H]5[C@H]2[C@H]3C[C@H]46` [strychnine], the IC50 on zGlyRα2/ßb was found to be 0.121 ± 0.016 µM; against zGlyRα4b homomer it was 0.052 ± 0.011 µM; with zGlyRα1/ßa (setting [2]), 0.012 ± 0.004 µM; against zGlyRα4b/ßb, 0.021 ± 0.0031 µM; at zGlyRα3 homomer, 0.021 ± 0.008 µM; in the assay on zGlyRα1/ßb (setting [2]), 0.074 ± 0.017 µM. For the same compound, the IC50 on zGlyRα4a homomer worked out at 0.055 ± 0.012 µM; against zGlyRα2 homomer, 0.212 ± 0.037 µM; at zGlyRα3/ßa, 0.083 ± 0.016 µM; on zGlyRα2/ßa, 0.292 ± 0.043 µM; against zGlyRα4b/ßa it was 0.081 ± 0.016 µM; against zGlyRα4a/ßb, 0.018 ± 0.0026 µM. In addition, the IC50 is 0.041 ± 0.0081 µM at zGlyRα3/ßb and 0.043 ± 0.022 µM against zGlyRα4a/ßa.
